{"source": "patent US6914045B2", "about": "“Glycopeptide antibiotics” (Wyeth Holdings Corporation, priority 2001, dated 2005)", "key": {"[1]": {"tested_on": "Escherichia coli", "experiment": "in vitro antibacterial evaluation, MIC by broth dilution", "assay_type": "cell-based", "conditions": "18 hours at 35° C.", "summary_of_the_method": "(§1)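 Broth dilution per NCCLS M7-A2 in Mueller-Hinton II medium, inoculum 5×10^5 CFU/mL, antibiotic range 64-0.06 μg/mL. MIC taken as lowest concentration inhibiting growth; Gram-positive panel includes recent clinical isolates resistant to methicillin, penicillin and/or vancomycin.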"}, "[2]": {"tested_on": "Staphylococcus sp.", "experiment": "in vitro antibacterial evaluation, MIC by broth dilution", "assay_type": "cell-based", "conditions": "broth dilution, 18 hours at 35° C.", "summary_of_the_method": "as §1"}, "[3]": {"tested_on": "Streptococcus sp.", "experiment": "in vitro antibacterial evaluation, MIC by broth dilution", "assay_type": "cell-based", "conditions": "broth dilution, 18 hours at 35° C.", "summary_of_the_method": "as §1"}, "[4]": {"tested_on": "Enterococcus sp.", "experiment": "in vitro antibacterial evaluation, MIC by broth dilution", "assay_type": "cell-based", "conditions": "broth dilution, 18 hours at 35° C.", "summary_of_the_method": "as §1"}, "[5]": {"tested_on": "Staphylococcus aureus-SMITH (GC 4543)", "experiment": "acute lethal infection in mice", "assay_type": "in vivo", "conditions": "acute lethal infection, female CD-1 mice, intraperitoneal challenge, intravenous 30 min. after infection, 7 day survival", "summary_of_the_method": "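Intraperitoneal challenge of female CD-1 mice with a bacterial dose lethal to untreated animals within 24-48 hr; single iv treatment 30 min later, 5 mice per dose level. Survival is scored at day 7 and pooled from three experiments to give the median effective dose.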"}}, "data": [{"molecule": "COc1cccc(C2OCC3OC(OC4C(CO)OC(Oc5ccc(CC6NC(=O)C(C(C)c7ccccc7)NC(=O)CNC(=O)C(CO)NC(=O)C(C(O)C7CNC(=N)N7C7OC(CO)C(O)C(O)C7O)NC(=O)C(C(O)C7CNC(=N)N7)NC6=O)cc5)C(O)C4O)C(O)C(O)C3O2)c1", "note": "(stereo not drawn) [Example 137, Cyclo[glycyl-β-methylphenylalanyl-O-[4-O-[4,6-O-(3-methoxybenzylidene)hexopyranosyl]-hexopyranosyl]tyrosyl-3-(2-iminoimidazolidin-4-yl)seryl-3-(3-hexopyranosyl-2-iminoimidazolidin-4-yl)serylseryl]]", "values": [{"measurement": "MIC Escherichia coli (ATCC 25922)", "setting": "[1]; strain ATCC 25922", "value": 64, "unit": "µg/mL"}, {"measurement": "MIC Escherichia coli (GC 4559)", "setting": "[1]; strain GC 4559", "value": "32 to 64", "unit": "µg/mL"}, {"measurement": "MIC Escherichia coli (GC 4560)", "setting": "[1]; strain GC 4560", "value": 1, "unit": "µg/mL"}, {"measurement": "MIC Staphylococcus aureus (ATCC 29213)", "setting": "[2]", "value": "1 to 2", "unit": "µg/mL"}, {"measurement": "MIC Staphylococcus aureus (GC 1131)", "setting": "[2]", "value": 2, "unit": "µg/mL"}, {"measurement": "MIC Staphylococcus aureus (GC 3051)", "setting": "[2]", "value": "1 to 2", "unit": "µg/mL"}, {"measurement": "MIC Staphylococcus aureus (GC 3053)", "setting": "[2]", "value": "2 to 4", "unit": "µg/mL"}, {"measurement": "MIC Staphylococcus aureus (GC 4541)", "setting": "[2]", "value": "1 to 2", "unit": "µg/mL"}, {"measurement": "MIC Staphylococcus aureus (GC 4542)", "setting": "[2]", "value": "1 to 2", "unit": "µg/mL"}, {"measurement": "MIC Staphylococcus aureus (GC 4544)", "setting": "[2]", "value": 2, "unit": "µg/mL"}, {"measurement": "MIC Staphylococcus aureus (GC 4545)", "setting": "[2]", "value": "2 to 4", "unit": "µg/mL"}, {"measurement": "MIC Staphylococcus aureus (GC 1131)", "setting": "[2]; inoculum 5×10^5 CFU/mL, strain GC 1131", "value": 2, "unit": "µg/mL"}, {"measurement": "MIC Staphylococcus aureus (ATCC 29213)", "setting": "[2]; strain ATCC 29213", "value": "1 to 2", "unit": "µg/mL"}, {"measurement": "MIC Staphylococcus aureus (GC 3051)", "setting": "[2]; strain GC 3051", "value": "1 to 2", "unit": "µg/mL"}, {"measurement": "MIC Staphylococcus aureus (GC 3053)", "setting": "[2]; strain GC 3053", "value": "2 to 4", "unit": "µg/mL"}, {"measurement": "MIC Staphylococcus aureus (GC 4541)", "setting": "[2]; strain GC 4541", "value": "1 to 2", "unit": "µg/mL"}, {"measurement": "MIC Staphylococcus aureus (GC 4542)", "setting": "[2]; strain GC 4542", "value": "1 to 2", "unit": "µg/mL"}, {"measurement": "MIC Staphylococcus aureus-SMITH (GC 4543)", "setting": "[2]; strain GC 4543", "value": "1 to 2", "unit": "µg/mL"}, {"measurement": "MIC Staphylococcus aureus (GC 4544)", "setting": "[2]; strain GC 4544", "value": 2, "unit": "µg/mL"}, {"measurement": "MIC Staphylococcus aureus (GC 4545)", "setting": "[2]; strain GC 4545", "value": "2 to 4", "unit": "µg/mL"}, {"measurement": "MIC Staphylococcus haemolyticus (GC 4546)", "setting": "[2]; strain GC 4546", "value": 1, "unit": "µg/mL"}, {"measurement": "MIC Coagulase Negative Staphylococcus (GC 4547)", "setting": "[2]; strain GC 4547", "value": "1 to 2", "unit": "µg/mL"}, {"measurement": "MIC Coagulase Negative Staphylococcus (GC 4548)", "setting": "[2]; strain GC 4548", "value": "0.5 to 2", "unit": "µg/mL"}, {"measurement": "MIC Coagulase Negative Staphylococcus (GC 4549)", "setting": "[2]; strain GC 4549", "value": "0.5 to 1", "unit": "µg/mL"}, {"measurement": "MIC Coagulase Negative Staphylococcus (GC 4551)", "setting": "[2]; strain GC 4551", "value": "1 to 2", "unit": "µg/mL"}, {"measurement": "MIC Coagulase Negative Staphylococcus (GC 6257)", "setting": "[2]; strain GC 6257", "value": 1, "unit": "µg/mL"}, {"measurement": "MIC Staphylococcus aureus-SMITH (GC 4543)", "setting": "[2]; strain SMITH GC 4543", "value": "1 to 2", "unit": "µg/mL"}, {"measurement": "MIC Streptococcus agalactiae (GC 4564)", "setting": "[3]; Streptococcus agalactiae (GC 4564)", "value": 0.5, "unit": "µg/mL"}, {"measurement": "MIC Streptococcus pneumoniae (ATCC 6301)", "setting": "[3]; Streptococcus pneumoniae (ATCC 6301)", "value": 0.12, "unit": "µg/mL"}, {"measurement": "MIC Streptococcus pneumoniae (GC 1894)", "setting": "[3]; Streptococcus pneumoniae (GC 1894)", "value": "<0.06", "unit": "µg/mL"}, {"measurement": "MIC Streptococcus pneumoniae (GC 4565)", "setting": "[3]; Streptococcus pneumoniae (GC 4565)", "value": 0.25, "unit": "µg/mL"}, {"measurement": "MIC Streptococcus pyogenes (GC 4563)", "setting": "[3]; Streptococcus pyogenes (GC 4563)", "value": 0.25, "unit": "µg/mL"}, {"measurement": "MIC Streptococcus pneumoniae (ATCC 6301)", "setting": "[3]; strain ATCC 6301", "value": 0.12, "unit": "µg/mL"}, {"measurement": "MIC Streptococcus pneumoniae (GC 1894)", "setting": "[3]; strain GC 1894", "value": "<0.06", "unit": "µg/mL"}, {"measurement": "MIC Streptococcus pyogenes (GC 4563)", "setting": "[3]; strain GC 4563", "value": 0.25, "unit": "µg/mL"}, {"measurement": "MIC Streptococcus agalactiae (GC 4564)", "setting": "[3]; strain GC 4564", "value": 0.5, "unit": "µg/mL"}, {"measurement": "MIC Streptococcus pneumoniae (GC 4565)", "setting": "[3]; strain GC 4565", "value": 0.25, "unit": "µg/mL"}, {"measurement": "MIC Enterococcus avium (GC 4558)", "setting": "[4]; Enterococcus avium (GC 4558)", "value": "4 to 8", "unit": "µg/mL"}, {"measurement": "MIC Enterococcus faecalis (ATCC 29212)", "setting": "[4]; Enterococcus faecalis (ATCC 29212)", "value": "4 to 8", "unit": "µg/mL"}, {"measurement": "MIC Enterococcus faecalis (GC 2242)", "setting": "[4]; Enterococcus faecalis (GC 2242)", "value": "4 to 8", "unit": "µg/mL"}, {"measurement": "MIC Enterococcus faecalis (GC 2691)", "setting": "[4]; Enterococcus faecalis (GC 2691)", "value": "4 to 8", "unit": "µg/mL"}, {"measurement": "MIC Enterococcus faecalis (GC 3059)", "setting": "[4]; Enterococcus faecalis (GC 3059)", "value": "4 to 8", "unit": "µg/mL"}, {"measurement": "MIC Enterococcus faecalis (GC 4552)", "setting": "[4]; Enterococcus faecalis (GC 4552)", "value": "4 to 8", "unit": "µg/mL"}, {"measurement": "MIC Enterococcus faecalis (GC 4553)", "setting": "[4]; Enterococcus faecalis (GC 4553)", "value": "4 to 8", "unit": "µg/mL"}, {"measurement": "MIC Enterococcus faecalis (GC 4554)", "setting": "[4]; Enterococcus faecalis (GC 4554)", "value": "4 to 8", "unit": "µg/mL"}, {"measurement": "MIC Enterococcus faecalis (GC 6189)", "setting": "[4]; Enterococcus faecalis (GC 6189)", "value": 4, "unit": "µg/mL"}, {"measurement": "MIC Enterococcus faecium (GC 2243)", "setting": "[4]; Enterococcus faecium (GC 2243)", "value": "4 to 8", "unit": "µg/mL"}, {"measurement": "MIC Enterococcus faecium (GC 4556)", "setting": "[4]; Enterococcus faecium (GC 4556)", "value": "4 to 8", "unit": "µg/mL"}, {"measurement": "MIC Enterococcus faecium (GC 4557)", "setting": "[4]; Enterococcus faecium (GC 4557)", "value": "2 to 4", "unit": "µg/mL"}, {"measurement": "MIC Enterococcus faecalis (ATCC 29212)", "setting": "[4]; strain ATCC 29212", "value": "4 to 8", "unit": "µg/mL"}, {"measurement": "MIC Enterococcus faecalis (GC 2242)", "setting": "[4]; strain GC 2242", "value": "4 to 8", "unit": "µg/mL"}, {"measurement": "MIC Enterococcus faecium (GC 2243)", "setting": "[4]; strain GC 2243", "value": "4 to 8", "unit": "µg/mL"}, {"measurement": "MIC Enterococcus faecalis (GC 2691)", "setting": "[4]; strain GC 2691", "value": "4 to 8", "unit": "µg/mL"}, {"measurement": "MIC Enterococcus faecalis (GC 3059)", "setting": "[4]; strain GC 3059", "value": "4 to 8", "unit": "µg/mL"}, {"measurement": "MIC Enterococcus faecalis (GC 4552)", "setting": "[4]; strain GC 4552", "value": "4 to 8", "unit": "µg/mL"}, {"measurement": "MIC Enterococcus faecalis (GC 4553)", "setting": "[4]; strain GC 4553", "value": "4 to 8", "unit": "µg/mL"}, {"measurement": "MIC Enterococcus faecalis (GC 4554)", "setting": "[4]; strain GC 4554", "value": "4 to 8", "unit": "µg/mL"}, {"measurement": "MIC Enterococcus faecium (GC 4556)", "setting": "[4]; strain GC 4556", "value": "4 to 8", "unit": "µg/mL"}, {"measurement": "MIC Enterococcus faecium (GC 4557)", "setting": "[4]; strain GC 4557", "value": "2 to 4", "unit": "µg/mL"}, {"measurement": "MIC Enterococcus avium (GC 4558)", "setting": "[4]; strain GC 4558", "value": "4 to 8", "unit": "µg/mL"}, {"measurement": "MIC Enterococcus faecalis (GC 6189)", "setting": "[4]; strain GC 6189", "value": 4, "unit": "µg/mL"}, {"measurement": "median effective dose (ED50), Staphylococcus aureus-SMITH (GC 4543)", "setting": "[5]", "value": 0.24, "unit": "mg/kg"}]}]}
